Experimental data: patent US12371454B2, “Cyclic peptide compound having Kras inhibitory action” (priority 2019, dated 2025)
Positions of bridges follow the written chain, without caps; N, C: chain ends. Non-standard residues stand in square brackets, D forms with d. Residues, ends and D or L forms follow the SMILES beside them. *: point of attachment. hPhe(3-Cl-4-CF3) = N[C@@H](CCc1ccc(C(F)(F)F)c(Cl)c1)C(=O)O; NMePhe(4-CF3) = CN[C@@H](Cc1ccc(C(F)(F)F)cc1)C(=O)O; 3Oxa8azabicyclo(3.2.1)octane = C1CC2COCC1N2*; NMePhe(4-Me) = CN[C@@H](Cc1ccc(C)cc1)C(=O)O; NMeAla(cPent) = CN[C@@H](CC1CCCC1)C(=O)O; NMeCha = CN[C@@H](CC1CCCCC1)C(=O)O; NMeChg = CN[C@H](C(=O)O)C1CCCCC1; NMeI = CC[C@H](C)[C@H](NC)C(=O)O; Gly(cBu) = N[C@H](C(=O)O)C1CCC1; N(CH2CH2)2CF2 = FC1(F)CCN(*)CC1; NMeD = CN[C@@H](CC(=O)O)C(=O)O; NMeL = CN[C@@H](CC(C)C)C(=O)O; NMeNva = CCC[C@H](NC)C(=O)O; NMeAbu = CC[C@H](NC)C(=O)O; NMeS = CN[C@@H](CO)C(=O)O; Morpholide = C1CN(*)CCO1; NMeA = CN[C@@H](C)C(=O)O; Pyrrolidide = C1CCN(*)C1; Ac5c = NC1(C(=O)O)CCCC1; Aze = O=C(O)[C@@H]1CCN1; Sar = CNCC(=O)O; Propyl = CCC*

Columns and labels:
[1] = target: T1, Kras and SOS1 (biotin-tagged human Kras loaded with GDP, His-tagged human SOS1) (Homo sapiens, UniProt P01116, G12D); experiment: Protein-protein interaction inhibition between Kras and SOS1 (KrasGl2D-SOS PPI) using AlphaScreen; assay type: binding; settings: AlphaScreen; biotin-tagged human Kras loaded with GDP, His-tagged human SOS1; read-out: KRAS G12D-SOS PPI IC50
T1 construct: made in house; host or cells: E. coli (stated for Kras only)
Procedure, shortened: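 Energy transfer from nickel-chelate donor beads bound to His-SOS1 to streptavidin acceptor beads bound to biotin-Kras, expressed in E. coli and loaded with GDP after purification, was monitored. Donors were excited at 680 nm; singlet oxygen reaching acceptors gave emission read at 520-620 nm.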

[2] = test system: Human pancreatic cancer cell line AsPC-1; experiment: Measurement of AsPC-1 cell growth inhibition (AsPC-1 CGI); assay type: cell-based; settings: 96 h
Procedure, shortened: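 AsPC-1 cells in 15% FBS RPMI-1640 were exposed to test compound for 96 hours at 37° C, with CellTiter-Glo as endpoint.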

T1 sequence (P01116 1-188 isoform P01116-2 G12D): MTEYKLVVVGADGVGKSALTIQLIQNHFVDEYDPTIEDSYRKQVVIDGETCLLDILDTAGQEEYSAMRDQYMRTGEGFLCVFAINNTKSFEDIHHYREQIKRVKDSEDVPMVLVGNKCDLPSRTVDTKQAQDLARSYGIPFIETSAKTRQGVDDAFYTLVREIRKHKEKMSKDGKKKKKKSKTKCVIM

Row | Compound | IC50 [1] [nM] | IC50 [2] [nM]
1 | CCCOC[C@H]1C(=O)N(C)CC(=O)N[C@@H](CCc2ccc(C(F)(F)F)c(Cl)c2)C(=O)N2CCC[C@H]2C(=O)NC2(CCCC2)C(=O)N(C)[C@@H](C2CCCCC2)C(=O)N(C)[C@H](C(=O)N2C3CCC2COC3)CC(=O)N(C)[C@@H](CCC)C(=O)N[C@@H]([C@@H](C)CC)C(=O)N(C)CC(=O)N(C)CC(=O)N1C [Compound 1971] ([NMeNva]I[Sar][Sar][NMeS](Propyl)[Sar][hPhe(3-Cl-4-CF3)]P[Ac5c][NMeChg][NMeD]-{3Oxa8azabicyclo(3.2.1)octane}; lactam N-11) | 1.1 | 100 to 500
2 | CCC[C@H]1C(=O)N[C@@H]([C@@H](C)CC)C(=O)N(C)CC(=O)N(C)CC(=O)N(C)[C@@H](Cc2ccc(C(F)(F)F)cc2)C(=O)N(C)CC(=O)N[C@@H](CCc2ccc(C(F)(F)F)c(Cl)c2)C(=O)N2CCC[C@H]2C(=O)NC2(CCCC2)C(=O)N(C)[C@@H](C2CCCCC2)C(=O)N(C)[C@H](C(=O)N2CCOCC2)CC(=O)N1C [Compound 1972] ([NMeNva]I[Sar][Sar][NMePhe(4-CF3)][Sar][hPhe(3-Cl-4-CF3)]P[Ac5c][NMeChg][NMeD]-Morpholide; lactam N-11) | 0.37 | 20 to 50
3 | CCC[C@H]1C(=O)N[C@@H]([C@@H](C)CC)C(=O)N(C)CC(=O)N(C)CC(=O)N(C)[C@@H](CC2CCCC2)C(=O)N(C)CC(=O)N[C@@H](CCc2ccc(C(F)(F)F)c(Cl)c2)C(=O)N2CCC[C@H]2C(=O)NC2(CCCC2)C(=O)N(C)[C@@H](C2CCCCC2)C(=O)N(C)[C@H](C(=O)N2CCCC2)CC(=O)N1C [Compound 1975] ([NMeNva]I[Sar][Sar][NMeAla(cPent)][Sar][hPhe(3-Cl-4-CF3)]P[Ac5c][NMeChg][NMeD]-Pyrrolidide; lactam N-11) | 0.51 | 50 to 100
4 | CC[C@H](C)[C@@H]1NC(=O)[C@H](CC(C)C)N(C)C(=O)C[C@@H](C(=O)N2C3CCC2COC3)N(C)C(=O)[C@H](C2CCCCC2)N(C)C(=O)C2(CCCC2)NC(=O)[C@@H]2CCCN2C(=O)[C@H](CCc2ccc(C(F)(F)F)c(Cl)c2)NC(=O)CN(C)C(=O)[C@H](CC2CCCC2)N(C)C(=O)CN(C)C(=O)CN(C)C1=O [Compound 1976] ([NMeL]I[Sar][Sar][NMeAla(cPent)][Sar][hPhe(3-Cl-4-CF3)]P[Ac5c][NMeChg][NMeD]-{3Oxa8azabicyclo(3.2.1)octane}; lactam N-11) | 1.5 | 100 to 500
5 | CC[C@H](C)[C@@H]1NC(=O)[C@H](CC(C)C)N(C)C(=O)C[C@@H](C(=O)N2CCCC2)N(C)C(=O)[C@H](C2CCCCC2)N(C)C(=O)C2(CCCC2)NC(=O)[C@@H]2CCCN2C(=O)[C@H](CCc2ccc(C(F)(F)F)c(Cl)c2)NC(=O)CN(C)C(=O)[C@H](Cc2ccc(C(F)(F)F)cc2)N(C)C(=O)CN(C)C(=O)CN(C)C1=O [Compound 1978] ([NMeL]I[Sar][Sar][NMePhe(4-CF3)][Sar][hPhe(3-Cl-4-CF3)]P[Ac5c][NMeChg][NMeD]-Pyrrolidide; lactam N-11) | 0.51 | 20 to 50
6 | CC[C@H](C)[C@@H]1NC(=O)[C@H](CC(C)C)N(C)C(=O)C[C@@H](C(=O)N(C)C)N(C)C(=O)[C@H]([C@@H](C)CC)N(C)C(=O)C2(CCCC2)NC(=O)[C@H](CC(=O)N2CCC(F)(F)CC2)N(C)C(=O)[C@H](CCc2ccc(C(F)(F)F)c(Cl)c2)NC(=O)CN(C)C(=O)[C@H](Cc2ccc(C)cc2)N(C)C(=O)[C@@H]2CCN2C(=O)[C@H](C)N(C)C1=O [Compound 1980] ([NMeL]I[NMeA][Aze][NMePhe(4-Me)][Sar][hPhe(3-Cl-4-CF3)][NMeD](N(CH2CH2)2CF2)[Ac5c][NMeI][NMeD]-NMe2; lactam N-11) | 1.5 | 100 to 500
7 | CCC[C@H]1C(=O)N[C@@H]([C@@H](C)CC)C(=O)N(C)CC(=O)N(C)CC(=O)N(C)[C@@H](Cc2ccc(C(F)(F)F)cc2)C(=O)N(C)CC(=O)N[C@@H](CCc2ccc(C(F)(F)F)c(Cl)c2)C(=O)N2CCC[C@H]2C(=O)NC2(CCCC2)C(=O)N(C)[C@@H](C2CCCCC2)C(=O)N(C)[C@H](C(=O)N2C3CCC2COC3)CC(=O)N1C [Compound 1983] ([NMeNva]I[Sar][Sar][NMePhe(4-CF3)][Sar][hPhe(3-Cl-4-CF3)]P[Ac5c][NMeChg][NMeD]-{3Oxa8azabicyclo(3.2.1)octane}; lactam N-11) | 0.68 | 20 to 50
8 | CCC[C@H]1C(=O)N[C@@H]([C@@H](C)CC)C(=O)N(C)CC(=O)N(C)CC(=O)N(C)[C@@H](Cc2ccc(C(F)(F)F)cc2)C(=O)N(C)CC(=O)N[C@@H](CCc2ccc(C(F)(F)F)c(Cl)c2)C(=O)N2CCC[C@H]2C(=O)NC2(CCCC2)C(=O)N(C)[C@@H](C2CCCCC2)C(=O)N(C)[C@H](C(=O)N2CCCC2)CC(=O)N1C [Compound 1984] ([NMeNva]I[Sar][Sar][NMePhe(4-CF3)][Sar][hPhe(3-Cl-4-CF3)]P[Ac5c][NMeChg][NMeD]-Pyrrolidide; lactam N-11) | 0.38 | 20 to 50
9 | CC(C)C[C@H]1C(=O)N[C@@H](C2CCC2)C(=O)N(C)CC(=O)N(C)CC(=O)N(C)[C@@H](CC2CCCCC2)C(=O)N(C)CC(=O)N[C@@H](CCc2ccc(C(F)(F)F)c(Cl)c2)C(=O)N2CCC[C@H]2C(=O)NC2(CCCC2)C(=O)N(C)[C@@H](C2CCCCC2)C(=O)N(C)[C@H](C(=O)N2CCCC2)CC(=O)N1C [Compound 1988] ([NMeL][Gly(cBu)][Sar][Sar][NMeCha][Sar][hPhe(3-Cl-4-CF3)]P[Ac5c][NMeChg][NMeD]-Pyrrolidide; lactam N-11) | 0.69 | 50 to 100
10 | CC[C@H](C)[C@@H]1NC(=O)[C@H](CC)N(C)C(=O)C[C@@H](C(=O)N2C3CCC2COC3)N(C)C(=O)[C@H](C2CCCCC2)N(C)C(=O)C2(CCCC2)NC(=O)[C@@H]2CCCN2C(=O)[C@H](CCc2ccc(C(F)(F)F)c(Cl)c2)NC(=O)CN(C)C(=O)[C@H](Cc2ccc(C(F)(F)F)cc2)N(C)C(=O)CN(C)C(=O)CN(C)C1=O [Compound 1993] ([NMeAbu]I[Sar][Sar][NMePhe(4-CF3)][Sar][hPhe(3-Cl-4-CF3)]P[Ac5c][NMeChg][NMeD]-{3Oxa8azabicyclo(3.2.1)octane}; lactam N-11) | 0.64 | 50 to 100
11 | CCC[C@H]1C(=O)N[C@@H]([C@@H](C)CC)C(=O)N(C)CC(=O)N(C)CC(=O)N(C)[C@@H](Cc2ccc(C)cc2)C(=O)N(C)CC(=O)N[C@@H](CCc2ccc(C(F)(F)F)c(Cl)c2)C(=O)N2CCC[C@H]2C(=O)NC2(CCCC2)C(=O)N(C)[C@@H](C2CCCCC2)C(=O)N(C)[C@H](C(=O)N2C3CCC2COC3)CC(=O)N1C [Compound 1994] ([NMeNva]I[Sar][Sar][NMePhe(4-Me)][Sar][hPhe(3-Cl-4-CF3)]P[Ac5c][NMeChg][NMeD]-{3Oxa8azabicyclo(3.2.1)octane}; lactam N-11) | 0.58 | 50 to 100
12 | CCC[C@H]1C(=O)N[C@@H]([C@@H](C)CC)C(=O)N(C)CC(=O)N(C)CC(=O)N(C)[C@@H](CC2CCCCC2)C(=O)N(C)CC(=O)N[C@@H](CCc2ccc(C(F)(F)F)c(Cl)c2)C(=O)N2CCC[C@H]2C(=O)NC2(CCCC2)C(=O)N(C)[C@@H](C2CCCCC2)C(=O)N(C)[C@H](C(=O)N2CCOCC2)CC(=O)N1C [Compound 1996] ([NMeNva]I[Sar][Sar][NMeCha][Sar][hPhe(3-Cl-4-CF3)]P[Ac5c][NMeChg][NMeD]-Morpholide; lactam N-11) | 0.64 | 20 to 50
